Assay results as given in patent US12714688B2, “Margaric acid decreases PIEZ02-mediated pain” (The United States of America, as represented by The …, priority 2020, dated 2026).
“Also recorded” adds a separate entry of the source.

Assays:
[1] = system: mechano-activated currents of DRG neurons; assay: Bradykinin sensitization of mechano-activated currents in mouse DRG neurons; assay type: cell-based
mouse PIEZO2 [2] = assay: Whole-cell patch-clamp with mechanical indentation of N2A^Piezo1−/− cells transfected with Piezo2 variant 2 (V2); conditions: from IC50 values
mouse PIEZO2 [3] = molecular target: mouse PIEZO2 (Mus musculus, UniProt Q8CD54); assay: as above; conditions: for IC50: IC50 of inhibition of PIEZO2 currents, mean±SEM
Sequence of mouse PIEZO2 (Mus musculus, UniProt Q8CD54) (Q8CD54 whole entry): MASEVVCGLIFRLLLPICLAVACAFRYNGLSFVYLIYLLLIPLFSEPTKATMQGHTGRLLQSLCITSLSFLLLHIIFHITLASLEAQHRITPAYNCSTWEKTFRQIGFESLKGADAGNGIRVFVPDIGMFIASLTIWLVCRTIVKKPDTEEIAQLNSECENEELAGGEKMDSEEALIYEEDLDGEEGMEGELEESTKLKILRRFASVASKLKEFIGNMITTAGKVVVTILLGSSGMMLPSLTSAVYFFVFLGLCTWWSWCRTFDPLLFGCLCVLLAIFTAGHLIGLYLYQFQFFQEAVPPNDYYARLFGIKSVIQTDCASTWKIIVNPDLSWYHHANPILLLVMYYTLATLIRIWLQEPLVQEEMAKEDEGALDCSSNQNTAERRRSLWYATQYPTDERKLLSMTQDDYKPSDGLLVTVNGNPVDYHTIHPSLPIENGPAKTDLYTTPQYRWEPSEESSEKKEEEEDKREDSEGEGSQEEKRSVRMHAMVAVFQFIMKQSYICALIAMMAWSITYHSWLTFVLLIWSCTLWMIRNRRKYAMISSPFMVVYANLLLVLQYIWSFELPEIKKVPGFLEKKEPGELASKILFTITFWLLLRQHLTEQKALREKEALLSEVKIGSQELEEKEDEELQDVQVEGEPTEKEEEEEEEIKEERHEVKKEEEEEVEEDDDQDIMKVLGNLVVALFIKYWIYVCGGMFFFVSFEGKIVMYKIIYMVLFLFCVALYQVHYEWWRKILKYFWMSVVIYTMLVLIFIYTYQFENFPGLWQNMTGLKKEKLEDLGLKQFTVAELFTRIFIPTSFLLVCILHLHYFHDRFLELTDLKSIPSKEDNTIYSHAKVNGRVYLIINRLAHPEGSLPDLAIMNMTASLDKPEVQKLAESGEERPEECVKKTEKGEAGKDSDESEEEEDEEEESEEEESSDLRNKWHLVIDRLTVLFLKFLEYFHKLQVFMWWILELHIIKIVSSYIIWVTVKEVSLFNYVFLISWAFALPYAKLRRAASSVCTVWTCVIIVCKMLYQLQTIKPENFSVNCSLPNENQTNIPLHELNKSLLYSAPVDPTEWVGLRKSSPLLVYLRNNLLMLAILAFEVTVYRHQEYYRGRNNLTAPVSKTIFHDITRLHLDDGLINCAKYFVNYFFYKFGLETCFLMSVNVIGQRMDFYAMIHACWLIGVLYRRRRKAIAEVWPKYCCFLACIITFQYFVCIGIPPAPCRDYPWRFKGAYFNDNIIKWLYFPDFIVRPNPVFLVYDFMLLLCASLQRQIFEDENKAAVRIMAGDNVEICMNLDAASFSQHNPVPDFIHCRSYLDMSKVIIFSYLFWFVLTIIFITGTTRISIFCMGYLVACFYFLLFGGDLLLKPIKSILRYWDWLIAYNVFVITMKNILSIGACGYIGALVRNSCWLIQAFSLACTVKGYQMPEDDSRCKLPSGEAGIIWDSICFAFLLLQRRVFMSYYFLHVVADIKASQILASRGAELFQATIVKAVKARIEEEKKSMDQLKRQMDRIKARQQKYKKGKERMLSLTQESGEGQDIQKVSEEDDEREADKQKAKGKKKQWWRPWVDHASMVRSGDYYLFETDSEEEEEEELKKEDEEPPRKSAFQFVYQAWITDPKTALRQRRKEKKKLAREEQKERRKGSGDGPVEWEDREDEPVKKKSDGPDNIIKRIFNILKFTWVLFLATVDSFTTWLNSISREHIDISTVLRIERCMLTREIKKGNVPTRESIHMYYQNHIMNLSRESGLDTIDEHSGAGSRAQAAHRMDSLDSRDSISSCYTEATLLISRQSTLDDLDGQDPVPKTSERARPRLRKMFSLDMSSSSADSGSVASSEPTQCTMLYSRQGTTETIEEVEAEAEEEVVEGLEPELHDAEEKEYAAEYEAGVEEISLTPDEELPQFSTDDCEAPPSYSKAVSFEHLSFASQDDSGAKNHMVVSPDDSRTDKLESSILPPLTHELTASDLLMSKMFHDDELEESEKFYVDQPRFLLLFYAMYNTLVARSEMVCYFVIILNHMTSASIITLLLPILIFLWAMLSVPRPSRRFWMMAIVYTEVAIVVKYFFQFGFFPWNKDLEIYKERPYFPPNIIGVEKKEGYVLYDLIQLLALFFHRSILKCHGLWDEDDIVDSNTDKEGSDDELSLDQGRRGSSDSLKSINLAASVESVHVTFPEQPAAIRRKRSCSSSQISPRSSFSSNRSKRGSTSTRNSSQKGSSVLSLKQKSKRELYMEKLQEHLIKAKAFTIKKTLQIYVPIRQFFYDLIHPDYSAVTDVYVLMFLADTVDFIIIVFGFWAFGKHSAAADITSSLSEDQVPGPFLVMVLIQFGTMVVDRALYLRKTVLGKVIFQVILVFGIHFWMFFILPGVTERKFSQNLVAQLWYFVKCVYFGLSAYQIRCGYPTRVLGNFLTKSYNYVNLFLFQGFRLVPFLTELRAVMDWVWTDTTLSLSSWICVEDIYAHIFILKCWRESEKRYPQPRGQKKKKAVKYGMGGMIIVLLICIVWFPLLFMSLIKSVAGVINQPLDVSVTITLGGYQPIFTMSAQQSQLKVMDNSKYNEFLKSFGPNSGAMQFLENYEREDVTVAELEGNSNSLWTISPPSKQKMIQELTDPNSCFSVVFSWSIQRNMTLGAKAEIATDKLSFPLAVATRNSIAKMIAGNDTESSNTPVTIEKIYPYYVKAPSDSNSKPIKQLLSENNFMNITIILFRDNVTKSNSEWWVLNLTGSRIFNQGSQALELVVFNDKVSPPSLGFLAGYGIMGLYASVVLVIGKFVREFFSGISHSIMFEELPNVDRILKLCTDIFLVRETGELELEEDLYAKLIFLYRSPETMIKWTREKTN

[4] = system: PIEZO2-PIEZO1 beam chimera; assay: Whole-cell patch-clamp of N2A^Piezo1−/− cells transfected with Piezo2-Piezo1 beam chimera
mouse DRG neurons [5] = assay: Electrical excitability of mouse DRG neurons (voltage-gated currents, membrane potential, current injection); assay type: cell-based
PIEZO1 = PIEZO1 (Mus musculus, UniProt E2JF22); assay: Whole-cell patch-clamp with mechanical indentation of N2A cells expressing endogenous Piezo1; conditions: IC50 of inhibition of PIEZO1 currents, mean±SEM
Piezo2 V14 = assay: Whole-cell patch-clamp of N2A^Piezo1−/− cells transfected with Piezo2 V14; conditions: 300 μM; 18 h
rat DRG neurons = assay: Current-clamp recording of action potentials elicited by mechanical stimuli in rat DRG neurons; conditions: 300 μM
mouse DRG neurons [6] = assay: Current-clamp recording of action potentials elicited by mechanical stimuli in mouse DRG neurons; assay type: cell-based
Text: Subsequent sweeps had increments of 1 μm.

mice = assay: Von Frey test, repeated injury model (daily hind paw injection); assay type: in vivo, mouse
Protocol: Mice behavior: MA solution: MA was prepared in sterile Dulbecco's phosphate buffered saline, with 70 g/L fatty acid free bovine serum albumin (BSA; Sigma), and MA to a final concentration of 5 mM. The solution was filtered to avoid undissolved materials.
Subjects: For the experiment 8-12 weeks old male and female C57B16/J mice (N=12; control n=6; male=3, female=3) MA (n=6; male=3, female=3) per experiment were used. Mice were housed under a 12 hr light dark cycle and granted access to food and water ad libitum.
Injections were given as follows: Mouse is restrained by their tail, foot, and over shoulders scruff. The compound is delivered using a 3/10 cc insulin syringe into the plantar surface of the back foot of each mouse. The beveled needle is inserted at a 35-40° angle and 20-50 μl of the compound is injected subcutaneously. […]
Mechanical threshold (Von Frey test): Punctate mechanical allodynia was measured using Von Frey monofilaments (Stoelting, Inc.) in varying grams of force (0.008-1 g). Animals were placed in small enclosures over a wire mesh and the plantar of the hind paw was poked with a filament and responses were recorded. Withdrawal responses were recorded when the animal lifted, shook, or licked the paw in response to stimulus presentation. […]

[7] = system: mechano-activated currents of mouse DRG neurons; assay: Whole-cell patch-clamp of mechano-activated currents in cultured mouse DRG neurons; conditions: 300 μM

effect on PIEZO2 inactivation (mouse PIEZO2 [3]; 50 μM each day for 4 days): without altering PIEZO2 inactivation | effect on displacement threshold (mouse PIEZO2 [3]; 50 μM each day for 4 days): increases the displacement threshold | decrease of PIEZO2 currents (mouse PIEZO2 [3]; 50 μM each day over four days): 65% | IC50 (mouse PIEZO2 [3]; MA 1-600 μM overnight (18 h), normalized current densities at maximum displacement, Boltzmann fit): 191 ± 14.7 µM | IC50 (mouse PIEZO2 [3]; latrunculin A-treated cells, MA 1-600 μM 18 h plus latrunculin A 1 μM for 1 h): 75.4 ± 13.3 µM | MA concentration required to decrease PIEZO2 currents (mouse PIEZO2 [3]; overnight supplementation): higher than 100 μM | increase of displacement threshold required to elicit PIEZO2 currents vs control cells (mouse PIEZO2 [3]; overnight supplementation): three fold | IC50 (PIEZO1; MA 1-300 μM 18 h): 28.3 ± 3.4 µM | IC50 (PIEZO1; latrunculin A-treated cells, MA 1-300 μM 18 h plus latrunculin A): 25.6 µM
SMILES: CCCCCCCCCCCCCCCCC(=O)O [MA, heptadecanoic acid]
current density after bradykinin administration ([1]; MA 300 μM 18 h, bradykinin 1 μM perfusion, 10 μm displacement, mean±SD, control 3.36±1.68): 3.64±1.96 pA/pF | mechano-currents after sensitization with bradykinin ([1]; MA 300 μM 18 h, acute bradykinin 1 μM): decreases the mechano-currents, even after sensitization with bradykinin | current densities after combined overnight incubation with bradykinin ([1]; bradykinin 1 μM and MA 300 μM, 18 h both): restored the current densities to those of control neurons | times more MA needed to inhibit PIEZO2 than PIEZO1 (mouse PIEZO2 [2]): ~ 7 times | effect on PIEZO2 currents (mouse PIEZO2 [3]; 1-600 μM overnight): inhibits heterologously-expressed mouse PIEZO2 currents; also recorded: inhibits PIEZO2 currents in a concentration-dependent manner | effect on time constant of inactivation (mouse PIEZO2 [3]; overnight supplementation): without affecting the time constant of inactivation | sensitivity of chimera to MA inhibition ([4]; 100 μM overnight, compared with PIEZO2): much more sensitive to MA inhibition | mechanical stimulus needed to open chimera ([4]; MA 100 μM overnight): requires a higher mechanical stimulus to open | electrical excitability (mouse DRG neurons [5]; 300 μM): does not alter mouse DRG neurons electrical excitability; also recorded: does not alter DRG neuronal electrical excitability | action potential firing elicited by current injection (mouse DRG neurons [5]; 300 μM vs control): no difference in action potential firing elicited by current injection | amplitudes of voltage-activated inward Na+ and outward K+ currents (mouse DRG neurons [5]; 300 μM vs control): no significant differences | membrane potential (mouse DRG neurons [5]; 300 μM, whole-cell configuration): did not alter membrane potential | effect on activity of Piezo2 V14 (Piezo2 V14): inhibited the activity | action potential firing elicited by mechanical stimuli (rat DRG neurons): reduces neuronal action potential firing elicited by mechanical stimuli | action potential firing elicited by mechanical stimuli (mouse DRG neurons [6]; 300 μM): reduces neuronal action potential firing elicited by mechanical stimuli; also recorded: decreases action potentials elicited by mechanical stimuli; also recorded: specifically decrease action potential firing evoked by mechanical stimulation | indentation steps eliciting action potentials (mouse DRG neurons [6]; 300 μM, control 7-12 μm): 12 μm | action potential generation (mouse DRG neurons [6]; 300 μM, indentation steps smaller than 12 μm): completely inhibits action potential generation | mechanical threshold required to fire action potentials (mouse DRG neurons [6]; MA supplementation): increases the mechanical threshold required for DRG neurons to fire action potentials | action potentials evoked by 1 Hz mechanical stimulus trains (mouse DRG neurons [6]; MA-enriched neurons vs control): evoked less action potentials than the control | hypersensitivity to punctate touch (tactile allodynia) (mice; MA 5 mM injected daily into hind paw for 7 days): ameliorates hypersensitivity to touch after injury; also recorded: selectively decreases tactile allodynia; also recorded: protects against tactile allodynia; also recorded: do not develop; also recorded: failed to develop this type of heightened withdrawal response | baseline touch responses (mice; acute sub-dermal injection): had no effect on baseline touch responses | effect on displacement threshold [7]: increasing the displacement threshold | effect on mechano-evoked currents ([7]; rapidly, intermediate and slowly inactivating currents): inhibit all mechanosensitive currents; also recorded: decreases mechano-activated currents; also recorded: decreased the current magnitude of all DRG neurons mechano-evoked currents
